Measured values: patent US7524816B2, “Peptides and supported peptides for treating skin diseases” (Genencor International, Inc., priority 2003, dated 2009)
One block for each molecule: values may come before it. Positions of bridges follow the written chain, without caps; N, C: chain ends. Residues, ends and D or L forms follow the SMILES beside them.

Legend:
Human VEGF165 [1] = target: T1, Human VEGF165 (Homo sapiens, UniProt P15692); assay: BIAcore surface plasmon resonance binding analysis of VEGF binding peptides
T1 construct: purchased Biosource
T1 sequence (P15692 27-191 isoform P15692-4): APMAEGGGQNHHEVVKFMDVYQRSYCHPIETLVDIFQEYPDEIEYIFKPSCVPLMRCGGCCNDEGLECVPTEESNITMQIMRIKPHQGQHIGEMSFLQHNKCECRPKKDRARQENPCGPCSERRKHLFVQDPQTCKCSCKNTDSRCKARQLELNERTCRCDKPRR
Method: FIG. 3 provides results of a BIACORE binding analysis of VEGF binding peptides. Binding curves were obtained as described in the Examples. […]
In this Example, experiments conducted to assess the affinities of the peptides for VEGF are described. Affinities of the peptides for VEGF were measured using a BIAcore™-3000 surface plasmon resonance system (Biacore). A CM5 sensor chip was conditioned with 50 mM NaOH, 0.1% HCl, 0.1% SDS, and 0.08% H3PO4, and activated for covalent coupling of […] using N-ethyl-N′-(3-dimethylaminopropyl)-carbodiimide hydrochloride (EDC) and N-hydroxysuccinimide (NHS) according to the supplier's instructions (Biacore). Human VEGF165 (Biosource) was diluted to 5 μg/ml in 20 mM sodium acetate, pH 4.8 and injected at a flow rate of 2 μl/min to achieve approximately 1000 to 6000 response units (RU) of coupled protein. TNF[…] (human TNF[…], Biosource, Int., Camarillo, Calif.) was similarly coupled to the CM5 sensor chip to approximately 850 to 3500 RU in the reference lane. A solution of 1 M ethanolamine was injected as a blocking agent. In some experiments, an additional solution of EDC and NHS were injected to improve baseline stability and a solution of 1 M ethanolamine injected as a blocking agent. The reference lane is activated with EDC and NHS and blocked with ethanolamine.
Peptides were synthesized using standard FMOC chemistry, purified by reverse phase HPLC to >95% purity (SynPep), and stored at 10 mg/mL in DMSO. For kinetic measurements, twofold serial diluted peptides in HBS-EP buffer, 0.01 M HEPES pH 7.4, 0.15 M NaCl, 3 mM EDTA, 0.005% Surfactant P20 (Biacore), were injected at 25° C. at a flow rate of 20 μL/min. Two-fold serial diluted DMSO samples and buffer samples were also injected for background subtraction. Kinetic parameters were calculated using BIAevaluation 3.1 software.

[2] = system: human umbilical vein endothelial cells (HUVEC); assay: In vitro HUVEC proliferation assay (MTS) of hVEGF inhibitory peptides; type: cell-based; conditions: 10 ng/ml VEGF, 48 hrs
Method: In this Example, experiments conducted to determine the anti-proliferative activity of anti-VEG peptides are described. The antiproliferative activity of VEGF inhibitory peptides was determined using human umbilical vein endothelial cells (HUVEC) as follows. An early passage (less than six) of HUVEC was seeded in 96-well plates at 5000 cells per well and starved for 18 hrs in 200 μl EBM medium (Cambrex) without growth factors and supplemented with 0.5% FBS, at 37° C. with 5% CO2. The medium was replaced with 180 μl of growth medium containing EBM medium with 5% fetal bovine serum and 1% DMSO. Then, 20 μl of VEGF preincubated for one hour with varying peptide concentrations (the final DMSO concentration of all the wells was 1%) were added to the wells for a final VEGF concentration of 10 ng/ml. Human VEGF antibody (R & D Systems) was used as a positive control. Cells with 0.31 to 20 ng/ml concentrations of VEGF alone in the growth medium were used to construct a standard growth curve. The cells were further incubated for 48 hrs, and the cell proliferation was measured using an MTS assay (CellTiter 96 Aqueous One Solution Cell Proliferation Assay Kit; Promega). Then, 40 μl of the MTS tetrazolium solution was added to each well and after 3 and 4 hours incubation, the plates were read at 490 nm. The absorption of media alone was subtracted from all data points.

[3] = Repeat insult patch test (RIPT) on human skin; type: in vivo; conditions: 0.5% (w/v) in deionized water/butylene glycol; approximately 0.2 mL; 200 human volunteers
Method: In this Example, experiments conducted to determine the patch test result for anti-VEGF peptides are described. Samples of the aVEGF peptide CK37281 dosed at 0.5% (w/v) were formulated in a base formulation containing deionized water/butylene glycol. Approximately 0.2 mL of the formulation was applied to 200 human volunteers in a repeated insult patch test according to procedures designed by Clinical Research Laboratories, Inc. (Piscataway, N.J.).

Human VEGF165 [4] = target: T1, Human VEGF165; assay: BIAcore binding analysis of BBI-VEGF constructs; conditions: trypsin and chymotrypsin coupled in remaining lanes
Method: In this Example, experiments conducted to determine the binding affinity of constructs produced as indicated in Example 9 are described. Affinities of BBI-VEGF constructs for VEGF were measured using BLAcore-3000 surface plasmon resonance (Biacore). A CM5 sensor chip was conditioned with 50 mM NaOH and activated for covalent coupling of VEGF using N-ethyl-N′-3-dimethylaminopropyl)-carbodiimide hydrochloride (EDC) and N-hydroxysuccinimide (NHS) according to the supplier's instructions (Biacore). VEGF (human VEGF165, Biosource) was diluated to 5 μg/mL in 20 mM sodium acetate, pH 4.8, and injected at a flow rate of 2 μL/min to achieve approximately 1000 to 6000 response units (RU) of coupled protein. Trypsin and chymotrypsin were similarly coupled to the CM5 sensor chip to approximately 850 to 3500 RU in remaining lanes. A solution of 1 M ethanolamine was injected as a blocking agent.

[5] = two state reaction model with conformation change

Molecule: CC[C@H](C)[C@@H]1NC(=O)[C@H](CC(=O)O)NC(=O)[C@@H](NC(=O)[C@H](CC(N)=O)NC(=O)[C@@H]2CCCN2C(=O)[C@H](CCC(=O)O)NC(=O)[C@@H](N)C(C)C)CSSC[C@@H](C(=O)N[C@@H](Cc2ccccc2)C(=O)N[C@@H](CCC(=O)O)C(=O)N[C@@H](CCCNC(=N)N)C(=O)N[C@@H](CC(C)C)C(N)=O)NC(=O)[C@H](CCC(=O)O)NC(=O)[C@H](Cc2c[nH]c3ccccc23)NC(=O)[C@H](CCC(=O)O)NC(=O)[C@H](Cc2c[nH]c3ccccc23)NC(=O)[C@H](CCSC)NC(=O)[C@H](C(C)C)NC(=O)[C@H](Cc2c[nH]cn2)NC1=O [v114, reference compound] (H-VEPNCDIHVMWEWECFERL-NH2; disulfide 5-15; N-terminus and C-terminus assumed)
- kd1 (Human VEGF165 [1]; 1:1 Langmuir binding fit, 1000 RU VEGF, 850 RU TNF): 0.167 s⁻¹

B1: BBI-VEGF1: Bowman-Birk inhibitor fusion with one binding loop replaced by anti-VEGF peptide (protein)
chain: DDESSKPCCDQCACYNLYGWTCRCSDMRLNSCHSACKSCICALSYPAQCFCVDITDFCYEPCKPSEDDKEN
modifications: synthetic BBI-VEGF1 fusion protein
- binding to VEGF (Human VEGF165 [4]): binds specifically to VEGF
- binding to VEGF (Human VEGF165 [4]; listed as BBI-VEGF): Selective binding affinity to VEGF

Continued, in another order:

- ka2 (Human VEGF165 [1]; [5]): 0.0015 s⁻¹
- kd1 (Human VEGF165 [1]; [5]): 0.0122 s⁻¹
Molecule: CC(C)C[C@@H]1NC(=O)[C@H](CC(N)=O)NC(=O)[C@H](Cc2ccc(O)cc2)NC(=O)[C@@H](NC(=O)[C@H](C)N)CSSC[C@@H](C(=O)NCC(=O)NCC(=O)NCC(=O)O)NC(=O)[C@H]([C@@H](C)O)NC(=O)[C@H](Cc2c[nH]c3ccccc23)NC(=O)CNC(=O)[C@H](Cc2ccc(O)cc2)NC1=O [CK37281] (H-ACYNLYGWTCGGG-OH; disulfide 2-10 (inferred); N-terminus and C-terminus assumed)
- IC50 antiproliferative activity [2]: in the micromolar range
- dermal irritation or sensitization [3]: no dermal irritation or sensitization

- ka2 (Human VEGF165 [1]; [5]): 0.00634 s⁻¹
- kd1 (Human VEGF165 [1]; [5]): 0.318 s⁻¹
Molecule: CC(C)C[C@@H]1NC(=O)[C@H](CC(N)=O)NC(=O)[C@@H](NC(=O)[C@H](C)N)CSSC[C@@H](C(=O)NCC(=O)NCC(=O)NCC(=O)O)NC(=O)[C@H](Cc2c[nH]c3ccccc23)NC(=O)[C@H](Cc2ccccc2)NC(=O)[C@H](Cc2c[nH]cn2)NC(=O)[C@@H]2CCCN2C(=O)[C@H](Cc2c[nH]c3ccccc23)NC1=O [CK37283, NLWPHFW]
- IC50 antiproliferative activity [2]: in the micromolar range
